Data reported in patent US11208412B2 (DAEGU-GYEONGBUK MEDICAL INNOVATION FOUNDATION, priority 2017, dated 2021).

Columns and labels:
Assay in all cases: Kinase selectivity, DiscoverX scanMAX Kinase assay panel (% control)
Format in all cases: binding
[1] = target: T1, kinases of the scanMAX Kinase assay panel (Homo sapiens, UniProt Q99759); conditions: MAP3K3; 1 uM
T1 construct: purchased DiscoverX Co. (contract measurement) scanMAX Kinase assay panel
T1 sequence (Q99759 1-626): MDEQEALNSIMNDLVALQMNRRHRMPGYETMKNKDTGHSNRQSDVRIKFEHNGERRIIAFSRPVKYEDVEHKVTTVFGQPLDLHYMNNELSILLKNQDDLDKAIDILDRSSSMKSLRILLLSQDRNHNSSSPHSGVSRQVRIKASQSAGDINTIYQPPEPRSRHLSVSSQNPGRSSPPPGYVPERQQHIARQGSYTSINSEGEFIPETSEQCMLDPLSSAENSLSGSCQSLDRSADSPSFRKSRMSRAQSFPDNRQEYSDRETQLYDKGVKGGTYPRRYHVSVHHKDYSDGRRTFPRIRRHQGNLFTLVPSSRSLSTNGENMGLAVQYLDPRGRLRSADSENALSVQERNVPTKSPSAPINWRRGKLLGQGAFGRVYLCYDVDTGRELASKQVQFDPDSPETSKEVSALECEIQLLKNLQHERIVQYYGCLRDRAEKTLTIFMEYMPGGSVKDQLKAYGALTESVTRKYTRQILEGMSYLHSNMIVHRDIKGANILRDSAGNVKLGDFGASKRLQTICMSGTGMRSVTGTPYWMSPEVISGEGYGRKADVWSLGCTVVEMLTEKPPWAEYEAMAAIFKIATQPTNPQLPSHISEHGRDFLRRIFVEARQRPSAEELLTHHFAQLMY
Summary of the method: (§1)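 Percent of control computed as (compound − positive control)/(negative control − positive control) × 100, DMSO defining 100% and positive control 0%. Each panel kinase exposed to 1 uM compound; values under 35% taken to mean the compound acts on that kinase.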

[2] = target: T2, kinases of the scanMAX Kinase assay panel (Homo sapiens, UniProt O43283); conditions: LZK; 1 uM
T2 construct: purchased DiscoverX Co. (contract measurement) scanMAX Kinase assay panel
T2 sequence (O43283 1-966): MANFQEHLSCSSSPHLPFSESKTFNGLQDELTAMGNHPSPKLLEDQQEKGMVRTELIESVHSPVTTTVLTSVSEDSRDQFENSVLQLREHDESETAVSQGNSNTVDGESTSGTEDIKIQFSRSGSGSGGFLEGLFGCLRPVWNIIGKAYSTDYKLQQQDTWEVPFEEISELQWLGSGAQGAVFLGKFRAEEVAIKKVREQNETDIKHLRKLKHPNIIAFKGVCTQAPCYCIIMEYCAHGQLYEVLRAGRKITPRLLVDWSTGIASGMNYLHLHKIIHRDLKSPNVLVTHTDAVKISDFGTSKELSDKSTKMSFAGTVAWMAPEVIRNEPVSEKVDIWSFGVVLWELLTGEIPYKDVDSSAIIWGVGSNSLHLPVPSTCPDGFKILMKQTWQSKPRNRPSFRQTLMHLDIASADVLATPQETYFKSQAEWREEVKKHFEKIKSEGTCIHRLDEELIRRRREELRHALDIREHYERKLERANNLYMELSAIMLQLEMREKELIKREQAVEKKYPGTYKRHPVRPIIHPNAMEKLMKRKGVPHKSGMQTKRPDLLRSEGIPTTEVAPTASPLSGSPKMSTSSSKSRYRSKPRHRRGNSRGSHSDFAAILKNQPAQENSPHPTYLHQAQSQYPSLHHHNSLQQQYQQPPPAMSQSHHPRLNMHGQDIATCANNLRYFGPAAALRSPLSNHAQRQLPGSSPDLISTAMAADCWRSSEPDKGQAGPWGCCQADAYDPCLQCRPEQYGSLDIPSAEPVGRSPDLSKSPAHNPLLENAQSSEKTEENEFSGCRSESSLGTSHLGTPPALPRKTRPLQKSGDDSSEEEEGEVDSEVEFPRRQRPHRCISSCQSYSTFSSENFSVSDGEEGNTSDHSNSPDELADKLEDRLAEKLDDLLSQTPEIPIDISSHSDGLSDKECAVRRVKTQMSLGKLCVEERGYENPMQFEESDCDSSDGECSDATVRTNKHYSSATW
Summary of the method: as §1

[3] = target: T3, kinases of the scanMAX Kinase assay panel (Homo sapiens, UniProt P07949, V804M); conditions: kinase RET(V804M); 1 uM in DMSO
T3 construct: purchased DiscoverX Co. (contract measurement) scanMAX Kinase assay panel
Summary of the method: as §1

[4] = target: T4, kinases of the scanMAX Kinase assay panel (Homo sapiens, UniProt Q13470); conditions: kinase TNK1; 1 uM in DMSO
T4 construct: purchased DiscoverX Co. (contract measurement) scanMAX Kinase assay panel
T4 sequence (Q13470 1-666): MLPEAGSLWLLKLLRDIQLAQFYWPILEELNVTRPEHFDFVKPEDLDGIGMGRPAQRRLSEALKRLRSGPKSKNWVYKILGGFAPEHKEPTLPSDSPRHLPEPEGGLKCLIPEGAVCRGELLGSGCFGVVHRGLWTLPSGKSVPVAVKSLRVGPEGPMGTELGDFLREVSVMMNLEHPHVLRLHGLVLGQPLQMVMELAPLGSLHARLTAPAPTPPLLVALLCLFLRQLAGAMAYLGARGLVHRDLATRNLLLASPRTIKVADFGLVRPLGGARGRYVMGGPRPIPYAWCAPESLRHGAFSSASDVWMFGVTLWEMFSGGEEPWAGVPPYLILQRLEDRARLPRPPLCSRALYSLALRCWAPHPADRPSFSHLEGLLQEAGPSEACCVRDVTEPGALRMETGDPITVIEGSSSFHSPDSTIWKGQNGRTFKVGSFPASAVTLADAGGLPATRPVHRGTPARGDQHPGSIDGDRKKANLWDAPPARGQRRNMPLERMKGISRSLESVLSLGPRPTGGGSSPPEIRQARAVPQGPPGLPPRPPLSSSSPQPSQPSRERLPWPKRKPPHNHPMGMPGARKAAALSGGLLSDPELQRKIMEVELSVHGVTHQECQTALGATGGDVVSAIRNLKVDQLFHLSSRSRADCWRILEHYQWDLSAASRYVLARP
Summary of the method: as §1

T3 sequence (P07949 29-1114 V804M): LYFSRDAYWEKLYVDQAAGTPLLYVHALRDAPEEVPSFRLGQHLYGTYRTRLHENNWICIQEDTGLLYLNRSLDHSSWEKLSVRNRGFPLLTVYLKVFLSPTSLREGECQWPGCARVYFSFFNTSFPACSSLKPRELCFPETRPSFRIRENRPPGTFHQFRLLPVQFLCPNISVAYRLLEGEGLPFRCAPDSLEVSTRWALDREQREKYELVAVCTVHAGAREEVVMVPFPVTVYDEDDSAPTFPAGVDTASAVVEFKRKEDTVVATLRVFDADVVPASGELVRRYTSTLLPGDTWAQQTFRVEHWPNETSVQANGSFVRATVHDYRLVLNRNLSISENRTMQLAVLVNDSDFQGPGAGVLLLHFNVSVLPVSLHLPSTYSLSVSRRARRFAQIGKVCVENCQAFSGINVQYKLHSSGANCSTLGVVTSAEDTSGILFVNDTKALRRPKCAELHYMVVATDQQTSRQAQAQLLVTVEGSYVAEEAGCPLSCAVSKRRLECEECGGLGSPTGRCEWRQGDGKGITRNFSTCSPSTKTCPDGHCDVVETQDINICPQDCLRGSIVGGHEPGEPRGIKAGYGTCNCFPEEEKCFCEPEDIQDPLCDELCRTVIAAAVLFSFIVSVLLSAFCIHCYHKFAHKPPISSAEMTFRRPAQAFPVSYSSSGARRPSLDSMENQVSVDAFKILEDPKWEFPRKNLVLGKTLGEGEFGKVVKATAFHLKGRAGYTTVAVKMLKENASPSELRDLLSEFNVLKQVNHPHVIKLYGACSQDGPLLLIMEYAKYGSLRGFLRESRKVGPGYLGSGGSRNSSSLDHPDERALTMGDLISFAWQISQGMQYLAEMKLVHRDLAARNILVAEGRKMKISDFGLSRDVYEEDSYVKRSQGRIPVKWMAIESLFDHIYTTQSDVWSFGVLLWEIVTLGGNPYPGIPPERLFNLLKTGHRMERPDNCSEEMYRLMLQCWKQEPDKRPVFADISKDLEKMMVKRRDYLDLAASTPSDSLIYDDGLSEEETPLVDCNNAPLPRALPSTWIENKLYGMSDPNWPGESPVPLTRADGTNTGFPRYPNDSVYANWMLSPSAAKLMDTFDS

SMILES	remaining binding at 1 µM [1] [%]	remaining binding at 1 µM [2] [%]	remaining binding at 1 µM [3] [%]	remaining binding at 1 µM [4] [%]
CCNc1nc(Nc2ccc(C(=O)N3CCC(N4CCOCC4)CC3)cc2OC)nc2[nH]cc(C(F)(F)F)c12 [Example 104, (4-((4-(ethylamino)-5-(trifluoromethyl)-7H-pyrrolo[2,3-d]pyrimidine-2-yl)amino)-3-methoxyphenyl)(4-morpholinopiperidine-1-yl)methanone]	87	100	87	16
CNc1nc(Nc2ccc(C(=O)N3CCOCC3)cc2OC)nc2[nH]cc(C#N)c12 [Example 1, 2-((2-methoxy-4-(morpholine-4-carbonyl)phenyl)amino)-4-(methylamino)-7H-pyrrolo[2,3-d]pyrimidine-5-carbonitrile]	98	81	89	85
CC1(Nc2nc(Nc3cnn([C@H]4CCN(C5COC5)C[C@@H]4F)c3Cl)nc3[nH]cc(C#N)c23)CC1 [Example 52, 2-((5-chloro-1-((3S,4S)-3-fluoro-1-(oxetane-3-yl)piperidine-4-yl)-1H-pyrazole-4-yl)amino)((1-methylcyclopropyl)amino)-7H-pyrrolo[2,3-d]pyrimidine-5-carbonitrile]	0.1	16	0	18
